From US20230365577A1, “Photodynamic Therapy and Diagnosis” (RMW CHO Group Limited, priority 2020, published 2023)
Structures can show the parent of a compound that is named as a salt. Where two headings read alike, the source gives them in different places.

Experiments:
[1] = Singlet oxygen (1O2) production rate; format: physicochemical
Source text: The production of singlet oxygen (^1O2), cellular phototoxicity and light-independent cytotoxicity (“dark toxicity”) of a number of phyllochlorin analogues were compared against chlorin e4 disodium and Talaporfin sodium (mono-L-aspartyl chlorin e6), the active ingredient of Laserphyrin™.

[2] = system: SKOV3 ovarian cancer cells; assay: Phototoxicity in SKOV3 cells (652 nm laser, AlamarBlue viability); format: cell-based, Human; settings: read-out: Cellular Toxicity: Phototoxicity IC90, SKOV3, 24 h uptake, 652 nm laser 50 mW/cm2 5 mins (15 J/cm2), viability 24 h later
Procedure: (§1) Human ovarian cancer cell line SKOV3 (ATCC #HTB-77) was maintained in Dulbecco's Modified Eagle Medium/Nutrient Mixture F-12 (DMEM/F-12), supplemented with 10% v/v Fetal Bovine Serum, 100 U/mL penicillin and 100 µg/mL streptomycin. Monolayer cultures were grown in a humidified incubator at 37° C. with 5% CO2.
(§2) For in vitro experiments, photosensitizers (stock solution 5.5 mM in 100% DMSO) were diluted in cell culture media (Dulbecco's Modified Eagle Medium/Nutrient Mixture F-12) supplemented with 10% v/v Fetal Bovine Serum, 100 U/mL penicillin, 100 µg/mL streptomycin and 10% w/v Kollidon-12. Once cells had reached ˜80% confluence, spent media was replaced with media containing photosensitizer and cells were incubated for the desired period of time to allow photosensitizer uptake.
(§3) SKOV3 cells were seeded in 96-well black wall plates (Greiner #655090) at a cell density of 5000 cells in 100 μl culture medium per well. On reaching ˜60% confluence, so media was aspirated and replaced with fresh media containing the relevant phyllochlorin analogue from 0-100 μM in DMSO. Cells were incubated for a further 24 hours, allowing uptake of phyllochlorin analogues.
To test for phototoxicity, cells incubated with phyllochlorin analogues (0-10 μM in DMSO) had culture media replaced after 24 hours (as above) and were then exposed to a 652 nm laser (Invion) with laser density at 50 mW/cm^2 for 5 mins (total 15 J/cm^2). Following activation, cells were cultured for a further 24 hours. Media was then replaced with fresh media containing AlamarBlue, and % viable cells remaining assessed as above. Controls included cells treated with phyllochlorin analogues but not activated by laser light; cells without phyllochlorin analogue treatment but with laser light; and untreated controls. All measurements were made in quadruplicate.
(§4) For comparative purposes, phyllochlorin analogues were tested and compared against both chlorin e4 disodium and Talaporfin sodium, a clinically approved photosensitizer used in the photodynamic treatment of lung cancers. Phototoxicity IC90 values and dark toxicity IC10 values were calculated using a log[inhibitor]-vs normalized response dose curve with variable slope, using the formula Y=100/(1+(IC90/X)^HillSlope (phototoxicity IC90) or Y=100/(1+(IC10/X)^HillSlope (dark toxicity IC10).

[3] = system: SKOV3 ovarian cancer cells; assay: Inherent cytotoxicity (dark toxicity) in SKOV3 cells (AlamarBlue viability); format: cell-based, Human; settings: human, 24 h
Procedure: as §1, §2
as §3, with “confluence,” for “confluence, so”
To test for inherent cytotoxicity (i.e. “dark toxicity”) of the phyllochlorin analogue the culture media was replaced after 24 hours with fresh media containing 10% (v/v) AlamarBlue Cell Viability Reagent (ThermoFisher) and cells incubated at 37° C. for 6 hours. Untreated cells were used as a control. Fluorescence (Ex 555 nm/Em 596 nm) was measured using a Cytation 3 Multimode Plate Reader (Biotek), and cytotoxicity assessed according to the % viable cells remaining. All measurements were made in quadruplicate.
as §4

[4] = system: SKOV3 cells; assay: Cellular uptake and retention (intrinsic fluorescence); format: cell-based, Human; settings: for Uptake and clearance, comparison of the two salt forms: SKOV3, 24 hours uptake then 24 hours clearance
Procedure: Based on the increased phototoxicity of compound 1c versus compound 1, it was assessed whether this salt substitution alters cellular uptake or retention over time. SKOV3 cells were incubated for up 24 hours in the presence of either compound 1 or 1c (as previously described). At defined time intervals (FIG. 5) the media was aspirated, replaced with sterile PBS, and cells imaged for fluorescence (Ex 405 nm/Em 660 nm) using a Cytation 3 Multimode Plate Reader (Biotek). After 24 hours the media was aspirated, replaced with fresh media and the loss of cellular fluorescence similarly monitored. All images (minimum 100 cells per time point) were then quantitatively analysed (Gen5.0 software) and an average fluorescence/cell/time point determined. Average fluorescence measurements were normalised against the maximum average value measured for each photosensitizer, and plotted as percent total fluorescence (mean±SD) overtime.
The uptake and retention of compounds 1 and 2 was compared in SKOV3 cancer cells over a 48 hour period. SKOV3 cells were incubated for up 24 hours in the presence of either compound 1 or 2 (as previously described). At defined time intervals (FIG. 6) the media was aspirated, replaced with sterile PBS, and cells imaged for fluorescence (Ex 405 nm/Em 660 nm) using a Cytation 3 Multimode Plate Reader (Biotek). After 24 hours the media was aspirated, replaced with fresh media and the loss of cellular fluorescence similarly monitored. All images (minimum 100 cells per time point) were then quantitatively analysed (Gen5.0 software) and an average fluorescence/cell/time point determined. Average fluorescence measurements were normalised against the maximum average value measured for each photosensitizer, and plotted as percent total fluorescence (mean±SD) over time.
Phyllochlorin was functionalised with saccharidyl groups (glucose or mannose) using various configurations, and the effects on rate of uptake by cells assessed over a 4 hour incubation period as above. The rate of uptake of saccharidyl-conjugated phyllochlorin analogues exceeded that of unconjugated compound 2 (examples shown in FIG. 7); after 2 hours, saccharidyl-conjugated phyllochlorin analogues (compounds 6, 8 and 17) had reached 57-68% of their maximal uptake compared to 37% for compound 2 (FIG. 7A). By 4 hours total uptake was similar, and there was no apparent difference in cellular distribution between glucose (compounds 6 and 8) and mannose (compound 17) linked species (FIG. 7B).

[5] = system: 4T1 murine breast cancer cells; assay: Tumour localisation and retention, model 1 (subcutaneous 4T1 tumours); format: in vivo, Balb/C wild type mice; settings: 0.1 mg/kg IT, primary breast tumours, IVIS fluorescence
Procedure: Model 1 used Balb/C wild type mice implanted subcutaneously with 10^4×4T1 murine breast cancer cells. When tumours reached a palpable size (˜3-6 mm diameter) mice received compound 6 by either oral gavage (ORAL: 2.5 mg/kg), intravenous injection (IV: 1.0 mg/kg), or intratumoral injection (IT: 1.0 mg/kg in […]). To establish compound 6 localisation, mice were imaged using an IVIS Lumina III In Vivo Imaging System (Perkin Elmer) to detect fluorescence at 660 nm when illuminated under blue (400-460 nm) light.
In a second experiment, the localisation of compound 6 at 24 hours post-administration was compared to that of Talaporfin sodium and 5-Aminolevulinic acid (5-ALA), with all compounds injected at 0.1 mg/kg IT. Fluorescence measurements were made using an IVIS Lumina III instrument (as above).

[6] = Homo sapiens, SK-OV-3, light or radiation study

| Singlet Oxygen Production (slope) 1O2 [1] | Compound | Cellular Toxicity: Dark toxicity IC10 [3] [nM] | IC90 [2, 6] [nM] | other results |
| --- | --- | --- | --- | --- |
|  | C=Cc1c(C)c2cc3nc(c(C)c4cc(C)c(cc5nc(cc1[nH]2)C(C)=C5CC)[nH]4)[C@@H](CCC(=O)O)[C@@H]3C [Compound 1, phyllochlorin sodium salt] | 21960 |  | Singlet Oxygen Production (slope) 1O2 ([1]; sodium salt): 1445.0; IC90 ([2]; sodium salt): 350 nM; Uptake and clearance, comparison of the two salt forms [4]: no significant difference; Fluorescence lost from cells ([4]; SKOV3, within 4 hours after replacing media): 80% |
| 2141.0 | C=Cc1c(C)c2cc3nc(c(C)c4cc(C)c(cc5nc(cc1[nH]2)C(C)=C5CC)[nH]4)[C@@H](CCC(=O)OC)[C@@H]3C [Compound 2, phyllochlorin methyl ester] | 39620 | 260 | Percent of maximal uptake ([4]; SKOV3, after 2 hours incubation): 37%; Compound remaining within cells ([4]; SKOV3, after 24 hours clearance): > 50% |
|  | NCC(=O)CCC(=O)O [Compound 5-ALA, 5-Aminolevulinic acid, reference compound] |  |  | Tumour localisation at 24 hours post-administration [5]: could not be accurately detected |
| 1293.0 | C=Cc1c(C)c2cc3nc(c(C)c4cc(C)c(cc5nc(cc1[nH]2)C(C)=C5CC)[nH]4)[C@@H](CCC(=O)N(C)CCOCCO[C@@H]1O[C@H](CO)[C@@H](O)[C@H](O)[C@H]1O)[C@@H]3C [Compound 14, 3-((7S,8S)-18-ethyl-2,5,8,12,17-pentamethyl-13-vinyl-7H,8H-porphyrin-7-yl)-N-methyl-N-(2-(2-(((2R,3R,4S,5S,6R)-3,4,5-trihydroxy-6-(hydroxymethyl)tetrahydro-2H-pyran-2-yl)oxy)ethoxy)ethyl)propanamide] | 22790 | 170 |  |
| 976.4 | C=Cc1c(C)c2cc3nc(c(C)c4cc(C)c(cc5nc(cc1[nH]2)C(C)=C5CC)[nH]4)[C@@H](CCC(=O)N(C)CCCO[C@@H]1O[C@H](CO)[C@@H](O)[C@H](O)[C@H]1O)[C@@H]3C [Compound 15, 3-((7S,8S)-18-ethyl-2,5,8,12,17-pentamethyl-13-vinyl-7H,8H-porphyrin-7-yl)-N-methyl-N-(3-(((2R,3R,4S,5S,6R)-3,4,5-trihydroxy-6-(hydroxymethyl)tetrahydro-2H-pyran-2-yl)oxy)propyl)propanamide] | 14600 | 230 |  |
| 884.1 | C=Cc1c(C)c2cc3nc(c(C)c4cc(C)c(cc5nc(cc1[nH]2)C(C)=C5CC)[nH]4)[C@@H](CCC(=O)N(C)CCCS[C@H]1O[C@H](CO)[C@@H](O)[C@H](O)[C@@H]1O)[C@@H]3C [Compound 16, phyllochlorin α-D-1-thiomannose-N-methylpropylamide conjugate] | 28640 | 250 |  |
| 1265.0 | C=Cc1c(C)c2cc3nc(c(C)c4cc(C)c(cc5nc(cc1[nH]2)C(C)=C5CC)[nH]4)[C@@H](CCC(=O)N(C)CCCS[C@@H]1O[C@H](CO)[C@@H](O)[C@H](O)[C@@H]1O)[C@@H]3C [Compound 17, phyllochlorin β-D-1-thiomannose-N-methylpropylamide conjugate] | 76270 | 220 |  |
| 1060.0 | C=Cc1c(C)c2cc3nc(c(C)c4cc(C)c(cc5nc(cc1[nH]2)C(C)=C5CC)[nH]4)[C@@H](CCC(=O)N(C)CCOCCO)[C@@H]3C [Compound 18, 3-((7S,8S)-18-ethyl-2,5,8,12,17-pentamethyl-13-vinyl-7H,8H-porphyrin-7-yl)-N-(2-(2-hydroxyethoxy)ethyl)-N-methylpropanamide] | 32300 | 100 |  |
| 1210.0 | C=Cc1c(C)c2cc3nc(c(C)c4cc(C)c(cc5nc(cc1[nH]2)C(C)=C5CC)[nH]4)[C@@H](CCC(=O)NCCOCCO[C@@H]1O[C@H](CO)[C@@H](O)[C@H](O)[C@H]1O)[C@@H]3C [Compound 20, 3-((7S,8S)-18-ethyl-2,5,8,12,17-pentamethyl-13-vinyl-7H,8H-porphyrin-7-yl)-N-(2-(2-(((2R,3R,4S,5S,6R)-3,4,5-trihydroxy-6-(hydroxymethyl)tetrahydro-2H-pyran-2-yl)oxy)ethoxy)ethyl)propanamide] | 46230 | 230 |  |
| 736.7 | C=Cc1c(C)c2cc3nc(c(CC(=O)N[C@@H](CC(=O)O)C(=O)O)c4[nH]c(cc5nc(cc1[nH]2)C(C)=C5CC)c(C)c4C(=O)O)[C@@H](CCC(=O)O)[C@@H]3C [Talaporfin sodium, mono-L-aspartyl chlorin e6, reference compound] | 11100 | 22800 |  |

| Compound | Singlet Oxygen Production (slope) 1O2 [1] | Cellular Toxicity: Dark toxicity IC10 [3] [nM] | IC90 [2, 6] [nM] | other results |
| --- | --- | --- | --- | --- |
| C=Cc1c(C)c2cc3nc(c(C)c4cc(C)c(cc5nc(cc1[nH]2)C(C)=C5CC)[nH]4)[C@@H](CCC(=O)O)[C@@H]3C [Compound 1c, phyllochlorin choline salt] | 1229.0 | 58010 |  | IC90 [2]: 210 nM; Uptake and clearance, comparison of the two salt forms [4]: no significant difference |
